Where two headings read alike, the source gives them in different places.
Columns and labels:
[1] = tested on: mechanical allodynia of the post-operative pain model in rats; assay: Mechanical allodynia (von Frey filaments) in the post-operative pain model (plantar incision) in rats; type: in vivo; conditions: for doses producing significant effect, Sigma antagonist alone: BD1063 alone 20, 40 and 80 mg/kg, compound 63.HCl alone 10, 20, 40 and 80 mg/kg
Procedure: The induction of anesthesia in rats was performed with 3% isofluran for veterinary use, employing an Ohmeda vaporizer and an anesthesia chamber. Anesthesia was kept during the surgical operation by a tube which directs the isofluran vapors to the animal's snout. Once the rats were anesthetized, they were laid down in a prone position and their right hind paws were cleaned out with alcohol. Then, a skin incision in the hindpaw of about 10 mm was made by means of a scalpel, starting about 5 mm from the heel and extending toward the toes. Fascia was located and by means of curve scissors muscle was elevated and a longitudinal incision of about 5 mm was made, thus the muscle origin and insertion remained intact. The skin of the paw was stitched with a suturing stitch with breaded silk (3.0) and the wound was cleaned out with povidone. The assessment was performed 30 minutes after the administration of product and always 4 hours after the plantar incision. The analysis was carried out evaluating the mechanical allodynia. It was tested using von Frey filaments: Animals were placed in methacrylate cylinders on an elevated surface, with metallic mesh floor perforated in order to apply the filaments. […] The animal's response to pain was manifested by the withdrawal of the paw as a consequence of the painful stimulus caused by a filament.

σ1 receptors = conditions: rodent brain membranes and human neuroblastoma cells, cited from earlier work
D2 receptors = conditions: rodent brain membranes and human neuroblastoma cells; compared with haloperidol; cited from earlier work
sigma-1 receptors = conditions: both in experimental animals and human cells; cited from earlier work

CN1CCN(CCc2ccc(Cl)c(Cl)c2)CC1 [BD1063, 1-[2-(3,4-dichlorophenyl)ethyl]-4-methylpiperazine]
ED50 ([1]; Rattus norvegicus, rats, compound alone, administered 3.5 hours after surgery, assessed 30 minutes after administration, 4 hours after plantar incision, read-out: ED50 (dose-dependent effect), Sigma antagonist alone): 56.2 mg/kg
doses producing significant effect, Sigma antagonist alone ([1]; rats): significant effect only at 40 and 80 mg/kg

Cc1ccc(-c2cc(C(F)(F)F)nn2-c2ccc(S(N)(=O)=O)cc2)cc1 [Celecoxib]
Mean of the porcentage of analgesia in the post-operative pain model, Compounds alone ([1]; dose 0.625 mg/kg): 13%
effect of NSAID alone ([1]; rats, NSAID alone 0.625 mg/kg): no significant effect

O=C(O)Cc1ccccc1Nc1c(Cl)cccc1Cl [Diclofenac]
Mean of the porcentage of analgesia in the post-operative pain model, Compounds alone ([1]; dose 0.625 mg/kg): 13%
effect of NSAID alone ([1]; rats, NSAID alone 0.312 mg/kg): no significant effect

CC(C)Cc1ccc(C(C)C(=O)O)cc1 (centres unmarked) [Ibuprofen]
Mean of the porcentage of analgesia in the post-operative pain model, Compounds alone ([1]; dose 0.625 mg/kg): 16%
effect of NSAID alone ([1]; rats, NSAID alone 0.625 mg/kg): no significant effect

Cc1c(N(C)CS(=O)(=O)O)c(=O)n(-c2ccccc2)n1C [Metamizole]
Mean of the porcentage of analgesia in the post-operative pain model, Compounds alone ([1]; dose 0.156 mg/kg): 14%
effect of NSAID alone ([1]; rats, NSAID alone 0.156 mg/kg): no significant effect

COc1ccc2cc([C@H](C)C(=O)O)ccc2c1 [Naproxen]
Mean of the porcentage of analgesia in the post-operative pain model, Compounds alone ([1]; dose 0.312 mg/kg): 13%
effect of NSAID alone ([1]; rats, NSAID alone 0.312 mg/kg): no significant effect

CC(=O)Nc1ccc(O)cc1 [Paracetamol]
Mean of the porcentage of analgesia in the post-operative pain model, Compounds alone ([1]; dose 20 mg/kg): 13%
effect of NSAID alone ([1]; rats, NSAID alone 20 mg/kg): no significant effect

Cc1cc(OCCN2CCOCC2)nn1-c1ccc2ccccc2c1 [compound 63, 4-{2-[5-Methyl-1-(naphthalen-2-yl)-1H-pyrazol-3-yloxy]ethyl}morpholine]
Mean of the porcentage of analgesia in the post-operative pain model, Compounds alone ([1]; dose 10 mg/kg): 2%
Mean of the porcentage of analgesia in the post-operative pain model, Compounds alone ([1]; dose 20 mg/kg): 15%
Mean of the porcentage of analgesia in the post-operative pain model, Compounds alone ([1]; dose 40 mg/kg): 43%
Mean of the porcentage of analgesia in the post-operative pain model, Compounds alone ([1]; dose 80 mg/kg): 41%

Cc1cc(OCCN2CCOCC2)nn1-c1ccc2ccccc2c1.Cl [compound 63.HCl, 4-{2-[5-Methyl-1-(naphthalen-2-yl)-1H-pyrazol-3-yloxy]ethyl}morpholine hydrochloride]
doses producing significant effect, Sigma antagonist alone ([1]; rats): significant effect only at 40 and 80 mg/kg
maximum effect / maximum efficacy, Sigma antagonist alone ([1]; rats, compound alone (10, 20, 40 and 80 mg/kg), without sub-active dose of NSAID, 3.5 hours after surgery): 43%

OC1(c2ccc(Cl)cc2)CCNCC1 [metabolite I, 4-(4-chlorophenyl)-4-hydroxypiperidine]
affinity for σ1 (sigma-1) receptors (σ1 receptors): less affinity than haloperidol
affinity for D2 receptors (D2 receptors): no affinity

OC(CCCN1CCC(O)(c2ccc(Cl)cc2)CC1)c1ccc(F)cc1 (centres unmarked) [metabolite II, 4-(4-chlorophenyl)-[…]-(4-fluorophenyl)-4-hydroxy-1-piperidinebutanol]
affinity for σ1 (sigma-1) receptors (σ1 receptors): less affinity than haloperidol
affinity for σ1 (sigma-1) receptors (σ1 receptors; listed as Reduced haloperidol): high affinity (in the low nanomolar range)
affinity for D2 receptors (D2 receptors): much lower
blockade of sigma-1 receptors (sigma-1 receptors): irreversible blockade
